Test results: the supplement of paper PMC12494721

What was measured:
Conditions in all cases: incubation time: 27 h, anaerobic, 37 °C
[1] = tested on: Clostridium sporogenes DSM 1664; assay: fold change of Tryptamine concentration vs plate DMSO controls (fold change (ratio)); higher = more amine produced
[2] = tested on: Ruminococcus gnavus DSM 108212; assay: as above
[3] = tested on: Ruminococcus gnavus DSM 108212; assay: fold change of 2-Phenylethylamine concentration vs plate DMSO controls (fold change (ratio)); higher = more amine produced
[4] = tested on: Klebsiella aerogenes DSM 30053; assay: fold change of Cadaverine concentration vs plate DMSO controls (fold change (ratio)); higher = more amine produced
[5] = tested on: Klebsiella aerogenes DSM 30053; assay: fold change of Putrescine concentration vs plate DMSO controls (fold change (ratio)); higher = more amine produced
[6] = tested on: Klebsiella aerogenes DSM 30053; assay: fold change of Histamine concentration vs plate DMSO controls (fold change (ratio)); higher = more amine produced
Procedure: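 Dose-response follow-up: bacteria (E. coli IAI1, K. aerogenes DSM 30053, C. sporogenes DSM 1664, R. gnavus DSM 108212) were grown anaerobically in mGAM at 37 °C for 27 h with compound at 0.6125-20 µM. Amines were measured in the whole culture by targeted LC-MS/MS. Metabolite fold change and OD595 fold change are relative to plate DMSO controls; n=2 biological replicates. OD fold changes are not clipped, so slightly negative values mean no growth.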

[7] = tested on: Klebsiella aerogenes DSM 30053; assay: growth (OD595) fold change vs plate DMSO controls (fold change (ratio)); higher = more growth
[8] = tested on: Clostridium sporogenes DSM 1664; assay: as above
[9] = tested on: Ruminococcus gnavus DSM 108212; assay: as above
[10] = tested on: Escherichia coli IAI1; assay: fold change of Cadaverine concentration vs plate DMSO controls (fold change (ratio)); higher = more amine produced
[11] = tested on: Escherichia coli IAI1; assay: fold change of Putrescine concentration vs plate DMSO controls (fold change (ratio)); higher = more amine produced
[12] = tested on: Escherichia coli IAI1; assay: growth (OD595) fold change vs plate DMSO controls (fold change (ratio)); higher = more growth

CN1CCN(c2c(F)cc3c(=O)c(C(=O)O)cn4c3c2SCC4)CC1 [Rufloxacin]
Conditions | fold change of 2-Phenylethylamine concentration, [3] | fold change of Cadaverine concentration, [4] | fold change of Histamine concentration, [6] | fold change of Putrescine concentration, [5] | fold change of Tryptamine concentration, [1] | fold change of Tryptamine concentration, [2] | growth, [7] | growth, [8] | growth, [9]
0.6125 µM | 0.871 | 0.967 | 1.1 | 0.99 | 1 | 0.989 | 0.848 | 1.09 | 1.07
1.25 µM | 1.12 | 0.979 | 1.03 | 0.992 | 0.994 | 1.18 | 0.939 | 0.879 | 0.974
2.5 µM | 2.04 | 0.981 | 1.96 | 1.05 | 0.972 | 2.02 | 0.636 | 0.898 | 0.91
5 µM | 1.33 | 1.03 | 0.834 | 1.12 | 0.931 | 1.51 | 0.425 | 1.09 | 0.61
10 µM | 1.22 | 1.09 | 0.211 | 1.19 | 0.674 | 1.24 | 0.466 | 0.742 | 0.593
20 µM | 1.18 | 1.12 | 0.22 | 1.19 | 0.0448 | 1.16 | 0.37 | 0.0686 | 0.484

COc1c(N2CCNC(C)C2)c(F)cc2c(=O)c(C(=O)O)cn(C3CC3)c12 (stereo not drawn) [Gatifloxacin]
Conditions | fold change of 2-Phenylethylamine concentration, [3] | fold change of Cadaverine concentration, [4] | fold change of Histamine concentration, [6] | fold change of Putrescine concentration, [5] | fold change of Tryptamine concentration, [2] | growth, [7] | growth, [9]
0.6125 µM | 1.35 | 0.983 | 1.35 | 1.03 | 1.31 | 0.993 | 0.932
1.25 µM | 1.33 | 1.03 | 0.852 | 1.2 | 1.5 | 0.605 | 0.65
2.5 µM | 1.67 | 1.02 | 0.158 | 1.26 | 2.2 | 0.302 | 0.553
5 µM | 2.18 | 0.999 | 0.193 | 1.35 | 2.87 | 0.348 | 0.484
10 µM | 1.22 | 1 | 0.284 | 1.4 | 1.85 | 0.373 | 0.3
20 µM | 0.23 | 0.997 | 0.4 | 1.24 | 0.434 | 0.242 | 0.107

CCn1cc(C(=O)O)c(=O)c2cc(F)c(N3CCNCC3)nc21 [Enoxacin]
Conditions | fold change of 2-Phenylethylamine concentration | fold change of Cadaverine concentration | fold change of Histamine concentration | fold change of Putrescine concentration | fold change of Tryptamine concentration | growth
[1], 0.6125 µM | – | – | – | – | 0.988 | –
[1], 1.25 µM | – | – | – | – | 0.965 | –
[1], 2.5 µM | – | – | – | – | 0.972 | –
[1], 5 µM | – | – | – | – | 0.712 | –
[1], 10 µM | – | – | – | – | 0.133 | –
[1], 20 µM | – | – | – | – | 0.0376 | –
[2], 0.6125 µM | – | – | – | – | 0.907 | –
[2], 1.25 µM | – | – | – | – | 1.03 | –
[2], 2.5 µM | – | – | – | – | 1.98 | –
[2], 5 µM | – | – | – | – | 1.5 | –
[2], 10 µM | – | – | – | – | 1.3 | –
[2], 20 µM | – | – | – | – | 1.47 | –
[3], 0.6125 µM | 0.788 | – | – | – | – | –
[3], 1.25 µM | 1.01 | – | – | – | – | –
[3], 2.5 µM | 1.5 | – | – | – | – | –
[3], 5 µM | 1.16 | – | – | – | – | –
[3], 10 µM | 1.04 | – | – | – | – | –
[3], 20 µM | 1.15 | – | – | – | – | –
[4], 0.6125 µM | – | 0.977 | – | – | – | –
[4], 1.25 µM | – | 0.984 | – | – | – | –
[4], 2.5 µM | – | 0.985 | – | – | – | –
[4], 5 µM | – | 1.01 | – | – | – | –
[4], 10 µM | – | 0.999 | – | – | – | –
[4], 20 µM | – | 0.994 | – | – | – | –
[5], 0.6125 µM | – | – | – | 1.03 | – | –
[5], 1.25 µM | – | – | – | 1.06 | – | –
[5], 2.5 µM | – | – | – | 1.2 | – | –
[5], 5 µM | – | – | – | 1.27 | – | –
[5], 10 µM | – | – | – | 1.3 | – | –
[5], 20 µM | – | – | – | 1.34 | – | –
[6], 0.6125 µM | – | – | 0.971 | – | – | –
[6], 1.25 µM | – | – | 1.17 | – | – | –
[6], 2.5 µM | – | – | 1.18 | – | – | –
[6], 5 µM | – | – | 0.54 | – | – | –
[6], 10 µM | – | – | 0.252 | – | – | –
[6], 20 µM | – | – | 0.329 | – | – | –
[7], 0.6125 µM | – | – | – | – | – | 0.845
[7], 1.25 µM | – | – | – | – | – | 1.25
[7], 2.5 µM | – | – | – | – | – | 0.554
[7], 5 µM | – | – | – | – | – | 0.373
[7], 10 µM | – | – | – | – | – | 0.469
[7], 20 µM | – | – | – | – | – | 0.328
[8], 0.6125 µM | – | – | – | – | – | 1.15
[8], 1.25 µM | – | – | – | – | – | 1.19
[8], 2.5 µM | – | – | – | – | – | 1.06
[8], 5 µM | – | – | – | – | – | 0.904
[8], 10 µM | – | – | – | – | – | 0.245
[8], 20 µM | – | – | – | – | – | 0.00474
[9], 0.6125 µM | – | – | – | – | – | 0.917
[9], 1.25 µM | – | – | – | – | – | 1.07
[9], 2.5 µM | – | – | – | – | – | 0.725
[9], 5 µM | – | – | – | – | – | 0.638
[9], 10 µM | – | – | – | – | – | 0.638
[9], 20 µM | – | – | – | – | – | 0.488
[10], 0.6125 µM | – | 1.43 | – | – | – | –
[10], 1.25 µM | – | 1.6 | – | – | – | –
[10], 2.5 µM | – | 1.14 | – | – | – | –
[10], 5 µM | – | 0.433 | – | – | – | –
[10], 10 µM | – | 0.292 | – | – | – | –
[10], 20 µM | – | 0.278 | – | – | – | –
[11], 0.6125 µM | – | – | – | 0.829 | – | –
[11], 1.25 µM | – | – | – | 0.362 | – | –
[11], 2.5 µM | – | – | – | 0.557 | – | –
[11], 5 µM | – | – | – | 0.832 | – | –
[11], 10 µM | – | – | – | 0.916 | – | –
[11], 20 µM | – | – | – | 0.993 | – | –
[12], 0.6125 µM | – | – | – | – | – | 0.893
[12], 1.25 µM | – | – | – | – | – | -0.0647
[12], 2.5 µM | – | – | – | – | – | -0.041
[12], 5 µM | – | – | – | – | – | 0.063
[12], 10 µM | – | – | – | – | – | 0.0275
[12], 20 µM | – | – | – | – | – | -0.0283
